Assay results reported in ChEMBL document CHEMBL1139069, “Novel antiproliferative analogs of the Taq DNA polymerase inhibitor catalpol” (2007).

How the values were obtained:
Type in all cases: functional
A2780 = assay: Antiproliferative activity against human A2780 cells after 48 hrs by SRB assay; conditions: A2780, 48 h
SW1573 [1] = assay: Antiproliferative activity against human SW1573 cells after 48 hrs by SRB assay; conditions: SW1573, 48 h
WiDr = assay: Antiproliferative activity against human WiDr cells after 48 hrs by SRB assay
T47D = assay: Antiproliferative activity against human T47D cells after 48 hrs by SRB assay
HBL-100 [2] = assay: Antiproliferative activity against human HBL100 cells after 48 hrs by SRB assay; conditions: HBL-100, 48 h
HeLa = assay: Antiproliferative activity against human HeLa cells after 48 hrs by SRB assay
HBL-100 [3] = assay: Cell cycle arrest in human HBL100 cells assessed as accumulation at G0/G1 phase at 5 uM after 24 hrs by flow cytometry
HBL-100 [4] = assay: Cell cycle arrest in human HBL100 cells assessed as accumulation at S phase at 5 uM after 24 hrs by flow cytometry
HBL-100 [5] = assay: Cell cycle arrest in human HBL100 cells assessed as accumulation at G2/M phase at 5 uM after 24 hrs by flow cytometry
HBL-100 [6] = assay: Cell cycle arrest in human HBL100 cells assessed as accumulation at G0/G1 phase at 10 uM after 24 hrs by flow cytometry
HBL-100 [7] = assay: Cell cycle arrest in human HBL100 cells assessed as accumulation at S phase at 10 uM after 24 hrs by flow cytometry
HBL-100 [8] = assay: Cell cycle arrest in human HBL100 cells assessed as accumulation at G2/M phase at 10 uM after 24 hrs by flow cytometry
SW1573 [9] = assay: Cell cycle arrest in human SW1573 cells assessed as accumulation at G0/G1 phase at 5 uM after 24 hrs by flow cytometry
SW1573 [10] = assay: Cell cycle arrest in human SW1573 cells assessed as accumulation at S phase at 5 uM after 24 hrs by flow cytometry
SW1573 [11] = assay: Cell cycle arrest in human SW1573 cells assessed as accumulation at G2/M phase at 5 uM after 24 hrs by flow cytometry
SW1573 [12] = assay: Cell cycle arrest in human SW1573 cells assessed as accumulation at G0/G1 phase at 10 uM after 24 hrs by flow cytometry
SW1573 [13] = assay: Cell cycle arrest in human SW1573 cells assessed as accumulation at S phase at 10 uM after 24 hrs by flow cytometry
SW1573 [14] = assay: Cell cycle arrest in human SW1573 cells assessed as accumulation at G2/M phase at 10 uM after 24 hrs by flow cytometry

SMILES | GI50 (A2780) [µM] | GI50 (SW1573 [1]) [µM] | GI50 (T47D) [µM] | GI50 (HeLa) [µM] | GI50 (WiDr) [µM] | GI50 (HBL-100 [2]) [nM] | Activity (HBL-100 [3]) [%] | Activity (HBL-100 [4]) [%] | Activity (HBL-100 [5]) [%] | Activity (HBL-100 [6]) [%] | Activity (HBL-100 [7]) [%] | Activity (HBL-100 [8]) [%] | Activity (SW1573 [9]) [%] | Activity (SW1573 [10]) [%] | Activity (SW1573 [11]) [%] | Activity (SW1573 [12]) [%] | Activity (SW1573 [13]) [%] | Activity (SW1573 [14]) [%]
CC(C)(C)[Si](OC[C@H]1O[C@H](O[C@@H]2OC=C[C@H]3[C@H](O)[C@@H]4O[C@]4(CO[Si](c4ccccc4)(c4ccccc4)C(C)(C)C)[C@@H]23)[C@H](O)[C@@H](O)[C@@H]1O)(c1ccccc1)c1ccccc1 | 2.4 | 2.7 | 4.1 | 4.4 | 3.4 | 2700 | 52 | 33 | 15 | 59 | 28 | 13 | 54 | 32 | 14 | 61 | 28 | 11
CC(C)(C)[Si](OC[C@H]1O[C@H](O[C@@H]2OC=C[C@H]3[C@H](O[Si](c4ccccc4)(c4ccccc4)C(C)(C)C)[C@@H]4O[C@]4(CO[Si](c4ccccc4)(c4ccccc4)C(C)(C)C)[C@@H]23)[C@H](O)[C@@H](O)[C@@H]1O)(c1ccccc1)c1ccccc1 | 2.4 | 1.8 | 2.7 | 2.1 | 2 | 2400 | 56 | 32 | 12 | 59 | 30 | 11 | 58 | 29 | 13 | 59 | 37 | 4
OC[C@H]1O[C@@H](O[C@@H]2OC=C[C@H]3[C@H](O)[C@@H]4O[C@]4(CO)[C@@H]23)[C@H](O)[C@@H](O)[C@@H]1O [CATALPOL] | > 100 | > 100 | > 100 |  | > 100 |  |  |  |  |  |  |  |  |  |  |  |  | 

More lines, main results first:

GI50 (A2780) [µM] | GI50 (SW1573 [1]) [µM] | GI50 (T47D) [µM] | GI50 (HeLa) [µM] | SMILES | GI50 (WiDr) [µM] | GI50 (HBL-100 [2]) [nM] | Activity (HBL-100 [3]) [%] | Activity (HBL-100 [4]) [%] | Activity (HBL-100 [5]) [%] | Activity (HBL-100 [6]) [%] | Activity (HBL-100 [7]) [%] | Activity (HBL-100 [8]) [%] | Activity (SW1573 [9]) [%] | Activity (SW1573 [10]) [%] | Activity (SW1573 [11]) [%] | Activity (SW1573 [12]) [%] | Activity (SW1573 [13]) [%] | Activity (SW1573 [14]) [%]
2.6 | 4.8 | 3.6 | 3.6 | CC(C)(C)[Si](C)(C)OC[C@H]1O[C@H](O[C@@H]2OC=C[C@H]3[C@H](O)[C@@H]4O[C@]4(CO[Si](C)(C)C(C)(C)C)[C@@H]23)[C@H](O)[C@@H](O)[C@@H]1O | 2.7 | 2800 | 54 | 35 | 11 | 51 | 30 | 19 | 49 | 37 | 14 | 63 | 20 | 17
60 | > 100 | > 100 |  | CC(=O)OC[C@H]1O[C@H](O[C@@H]2OC=C[C@H]3[C@H](OC(C)=O)[C@@H]4O[C@]4(COC(C)=O)[C@@H]23)[C@H](OC(C)=O)[C@@H](OC(C)=O)[C@@H]1OC(C)=O | > 100 |  |  |  |  |  |  |  |  |  |  |  |  | 
> 100 | > 100 | > 100 | > 100 | O=C(OC[C@H]1O[C@H](O[C@@H]2OC=C[C@H]3[C@H](OC(=O)c4ccccc4)[C@@H]4O[C@]4(COC(=O)c4ccccc4)[C@@H]23)[C@H](OC(=O)c2ccccc2)[C@@H](OC(=O)c2ccccc2)[C@@H]1OC(=O)c1ccccc1)c1ccccc1 | > 100 | > 100000 |  |  |  |  |  |  |  |  |  |  |  | 
36 | 88 | 87 | 77 | CC(C)(C)[Si](C)(C)OC[C@]12O[C@H]1[C@@H](O)[C@@H]1C=CO[C@@H](O[C@H]3O[C@H](CO)[C@@H](O)[C@H](O)[C@H]3O)[C@@H]12 | 81 | 52000 |  |  |  |  |  |  |  |  |  |  |  | 
> 100 | > 100 | > 100 |  | C[C@]1(O)C[C@@H](O)[C@]2(O)C=CO[C@@H](O[C@H]3O[C@H](CO)[C@@H](O)[C@H](O)[C@H]3O)[C@@H]21 [HARPAGIDE] | > 100 |  |  |  |  |  |  |  |  |  |  |  |  | 
